According to publication PMC7129073 (Clinical Microbiology and Infection, 2015):
In brackets after ≈: the same amount, converted by molar mass. Read-outs that look alike come from different tables or passages of the source.

Assays:
H. influenzae [1] = assay: Disk diffusion; format: cell-based, Haemophilus influenzae; details: 237 isolates
E. faecalis [2] = assay: E-test susceptibility; format: cell-based, Enterococcus faecalis
H. influenzae [3] = format: cell-based, Haemophilus influenzae
H. influenzae [4] = assay: Broth microdilution; format: cell-based, Haemophilus influenzae; details: 267 isolates
PRSP = assay: Broth microdilution; format: cell-based, Streptococcus pneumoniae
[5] = tested on: Salmonella serotype Enteritidis; assay: Disk diffusion, food isolates Spain; format: cell-based; details: n = 96
[6] = tested on: Salmonella serotype Typhimurium; assay: Disk diffusion, food isolates Spain; format: cell-based; details: n = 53
[7] = tested on: Staphylococcus coagulase negative (CNS); assay: Susceptibility testing; format: cell-based; details: conjunctival isolates 2000–2004
Haemophilus influenzae = assay: Susceptibility testing; format: cell-based; details: conjunctival isolates 2000–2004
[8] = tested on: intestinal Escherichia coli; assay: ampicillin resistance of intestinal isolates during treatment; parameters: species or system beagles; details: dog, in vivo
H. influenzae [9] = assay: Disk diffusion, sputum isolates Athens 2001–2004; format: cell-based, Haemophilus influenzae
Salmonella spp. = assay: Agar dilution susceptibility, gastroenteritis isolates Cuba; format: cell-based; details: 34 strains, 2002
E. coli = assay: Disk diffusion, urine isolates of BPH patients; details: strains isolated after operative intervention
E. faecalis [10] = assay: Italian survey of severe infections 2003, MIC; format: cell-based, Enterococcus faecalis
H. influenzae [11] = assay: MIC of invasive strains, Saint George Hospital 2001–2004; format: cell-based, Haemophilus influenzae; details: n = 129
Moraxella spp. = assay: Disk diffusion; format: cell-based; details: 35 isolates
ERSP = assay: Broth microdilution; format: cell-based, Streptococcus pneumoniae; details: Streptococcus pneumoniae
[12] = tested on: Pseudomonas putida clinical isolates; assay: Agar dilution MIC; format: cell-based
Escherichia coli O157:H7 = assay: Kirby-Bauer susceptibility; format: cell-based; details: 30 strains, 1990–2003
M. catarrhalis = assay: PROTEKT Italy, NCCLS microdilution; format: cell-based, Moraxella catarrhalis
H.influenzae [13] = assay: Broth microdilution; format: cell-based, Haemophilus influenzae
C. jejuni ATCC 33560 = assay: VetMIC broth microdilution, QC strain; format: cell-based; details: Campylobacter jejuni, ATCC33560, read-out: QC limits (MIC)
H.influenzae [14] = assay: PROTEKT Italy, NCCLS microdilution; format: cell-based, Haemophilus influenzae
Staphylococcus aureus = assay: Susceptibility testing; format: cell-based; details: conjunctival isolates 2000–2004
Shigella spp. = assay: Disk diffusion, stool isolates Tehran; format: cell-based; details: 96 isolates
S. pneumoniae [15] = assay: Broth microdilution; format: cell-based, Streptococcus pneumoniae
Escherichia coli = assay: Vitek 2 susceptibility, urine isolates of children; format: cell-based
[16] = tested on: Salmonella, other 49 serotypes; assay: Disk diffusion, food isolates Spain; format: cell-based; details: n = 115
enterococci = assay: Disk diffusion and E-test, faecal isolates of cancer patients; format: cell-based, Enterococcus; details: 38 strains
[17] = tested on: foreign body infection Staphylococcus epidermidis strains; assay: NCCLS disk diffusion; format: cell-based; details: 86 strains
S. aureus [18] = assay: E-test susceptibility; format: cell-based, Staphylococcus aureus
S. aureus [19] = assay: susceptibility of bloodstream isolates; format: cell-based
[20] = tested on: glycopeptide intermediate Staphylococcus species (GISS); assay: VITEK II, screening plate and E test, blood isolates; format: cell-based, coagulase-negative Staphylococci; details: for MIC: Staphylococcus
MRSA [21] = assay: Agar dilution MIC; format: cell-based, Staphylococcus aureus
[22] = tested on: agr− group II S. aureus (RN9120); assay: in vitro pharmacodynamic model, MIC by E-test and microdilution; format: cell-based; details: Staphylococcus aureus, read-out: post-exposure MIC
S. aureus 10 = assay: in vitro dynamic model, enrichment of resistant mutants; format: cell-based
E. faecium = assay: E-test susceptibility; format: cell-based, Enterococcus faecium
[23] = tested on: Staphylococci epidermidis; assay: E-test, classical method and macromethod; format: cell-based, Staphylococcus epidermidis; details: four strains: 8, 8, 12, 12; BHI agar, 2.0 McFarland, 48 h
[24] = tested on: viridans group streptococci (VGS); assay: MIC; format: cell-based
S. pneumoniae [25] = format: cell-based, Streptococcus pneumoniae
[26] = tested on: agr+ group II S. aureus (RN6607); assay: in vitro pharmacodynamic model, MIC by E-test and microdilution; format: cell-based; details: Staphylococcus aureus, 72 h, read-out: post-exposure MIC
[27] = tested on: viridans group streptococci (VgS) and Streptococcus bovis; assay: Broth microdilution and disk diffusion; format: cell-based; details: nine species
MSSA = assay: Agar dilution MIC; format: cell-based, Staphylococcus aureus
CA-MRSA = assay: MIC, MBC; format: cell-based, Staphylococcus aureus; details: time kill, two strains
[28] = tested on: Staphylococcus haemolyticus; assay: E-test, classical method and macromethod; format: cell-based
MRSA [29] = assay: Disk diffusion; format: cell-based, Staphylococcus aureus; details: 200 isolates
MDR-MRSA = assay: MIC, MBC; format: cell-based, Staphylococcus aureus; details: time kill, two strains
[30] = tested on: Streptococcus pyogenes (SPY); assay: MIC; format: cell-based; details: 2522 isolates
[31] = tested on: Streptococcus pneumoniae (SPN); assay: MIC; format: cell-based; details: 8378 isolates
[32] = tested on: Moraxella catarrhalis (MC); assay: MIC; format: cell-based; details: 2497 isolates
[33] = Mediterranean spotted fever, randomised therapeutic study; format: in vivo, human
Nocardia spp. = assay: E-test on Mueller Hinton agar, 81 clinical isolates; format: cell-based; details: Nocardia
H. influenzae (HI) = assay: SENTRY Brazil, NCCLS broth microdilution; format: cell-based, Haemophilus influenzae
[34] = tested on: C. pneumoniae target genes (LcrD, YscL, YscN, IncA, IncC, TyrB, GlyA); assay: Chlamydial gene expression; format: cell-based, Chlamydia pneumoniae; details: moxifloxacin 3.1 μg/ml, clarithromycin 2 μg/ml; peaking at 120 h
Acinetobacter = assay: Disk diffusion; format: cell-based; details: 37 isolates selected as resistant to beta-lactams
S. maltophilia = assay: Susceptibility of respiratory isolates of cancer patients; format: cell-based, Stenotrophomonas maltophilia; details: 40 patients
[35] = tested on: Stenotrophomonas maltophilia; assay: E-test, sputum isolates of children with cystic fibrosis; format: cell-based; details: 2000–2004
[36] = NCCLS breakpoints (Amox/Clav 2/1 mcg/mL)

CC1(C)S[C@@H]2[C@H](NC(=O)[C@H](N)c3ccccc3)C(=O)N2[C@H]1C(=O)O [ampicillin]
Susceptible isolates (H. influenzae [1]): 92% | Susceptibility (E. faecalis [2]; ICU, SRGA breakpoints, tigecycline tentative ≤2 μg/ml): 99/99% | Susceptibility (E. faecalis [2]; non-ICU): 99/99% | resistant (H. influenzae [3]): 4.7% | resistant (H. influenzae [4]): 5.2% | %Sus (PRSP; [36]): 0.0% | MIC90 (PRSP; Streptococcus pneumoniae, PRSP): 8 µg/mL (≈ 22.9 µM) | resistance rate (NCCLS M100-S13) [5]: 8% | resistance rate (NCCLS M100-S13) [6]: 62% | resistant isolates [7]: 79.5% | resistant isolates (Haemophilus influenzae): 9.5% | proportion of ampicillin-resistant isolates during treatment [8]: 98% | resistance rate (H. influenzae [9]; 2001–2002): 10.9% | resistance rate (H. influenzae [9]; 2003–2004): 23.1% | resistance (Salmonella spp.): 44% | resistance (E. coli): 93.1% | resistance (E. faecalis [10]): 0.4% | resistant isolates (H. influenzae [11]): 60% | Susceptible isolates (Moraxella spp.): 49% | resistant isolates (Moraxella spp.): 51% | MIC90 (ERSP): 8 µg/mL (≈ 22.9 µM) | MIC [12]: > 128 µg/mL | resistant strains (Escherichia coli O157:H7): 13.3% | susceptibility rate (M. catarrhalis; year 1): 22.7% | susceptibility rate (M. catarrhalis; year 2): 18.9% | MIC90 (H.influenzae [13]; Haemophilus influenzae): > 16 µg/mL | %Sus (H.influenzae [13]; NCCLS): 74.6% | MIC (C. jejuni ATCC 33560): 2 to 8 µg/mL (≈ 5.72 to 22.9 µM) | resistance (H.influenzae [14]; year 1): 26.5% | resistance (H.influenzae [14]; year 2): 20.6% | resistant isolates (Staphylococcus aureus): 66.6% | resistance (Shigella spp.): 100% | %Sus (S. pneumoniae [15]; [36]): 0.0% | MIC90 (S. pneumoniae [15]; Streptococcus pneumoniae): 4 µg/mL (≈ 11.4 µM) | susceptibility rate (Escherichia coli; paediatric surgical unit (PSU)): 15% | susceptibility rate (Escherichia coli; paediatric units (PU)): 54% | resistance rate (NCCLS M100-S13) [16]: 14% | resistant strains (enterococci; gentamycin: high level): 50%

Cc1onc(-c2ccccc2)c1C(=O)N[C@@H]1C(=O)N2[C@@H]1SC(C)(C)[C@@H]2C(=O)O [oxacillin]
% resistant [17]: More than 30% | Susceptibility (S. aureus [18]; ICU, SRGA breakpoints, tigecycline tentative S ≤2 μg/ml): 97% | Susceptibility (S. aureus [18]; non-ICU): 98% | % isolates resistant (S. aureus [18]; total): 2% | resistance (S. aureus [19]): 43% | sensitive strains ([20]; six out of 73): 8,2%

CN[C@H](CC(C)C)C(=O)N[C@H]1C(=O)N[C@@H](CC(N)=O)C(=O)N[C@H]2C(=O)N[C@H]3C(=O)N[C@H](C(=O)N[C@H](C(=O)O)c4cc(O)cc(O)c4-c4cc3ccc4O)[C@H](O)c3ccc(c(Cl)c3)Oc3cc2cc(c3O[C@@H]2O[C@H](CO)[C@@H](O)[C@H](O)[C@H]2O[C@H]2C[C@](C)(N)[C@H](O)[C@H](C)O2)Oc2ccc(cc2Cl)[C@H]1O [vancomycin]
MIC50 (MRSA [21]; Staphylococcus aureus, MRSA): < 1 µg/mL | MIC90 (MRSA [21]; Staphylococcus aureus, MRSA): < 1 µg/mL | MIC range (MRSA [21]; n = 50): 1 µg/mL (≈ 0.69 µM) | MIC [22]: 6 µg/mL (≈ 4.14 µM) | AUC/MIC predicted to protect from selection of resistant mutants (S. aureus 10): 256 h | AUC/MIC at which resistant mutants were selected (S. aureus 10; five-day treatment): 32 to 128 h | Susceptibility (E. faecium; ICU): 93% | Susceptibility (E. faecium; non-ICU): 98% | % isolates resistant (VRE) (E. faecium; total): 4% | MIC, macromethod of E-test [23]: 12 µg/mL | MIC50 [24]: 0.5 µg/mL (≈ 0.345 µM) | MIC90 [24]: 1 µg/mL (≈ 0.69 µM) | tolerant isolates ([24]; 83 isolates, tolerance to VA and TP): 77.6% | susceptibility of all isolates ([24]; NCCLS): All isolates were susceptible | MIC ([20]; read-out: MIC of intermediate sensitive strains): 8 to 12 µg/mL | MIC ([20]; read-out: MIC of resistant strain): 32 µg/mL | resistant (S. pneumoniae [25]): 0% | MIC [26]: ≤ 2 µg/mL | % S, range between species [27]: 100.0% | MIC50 (MSSA; Staphylococcus aureus, MSSA): < 0.5 µg/mL | MIC90 (MSSA; Staphylococcus aureus, MSSA): < 1 µg/mL | MIC range (MSSA; n = 200): 0.5 to 1 µg/mL (≈ 0.345 to 0.69 µM) | Δ Log10 CFU/ml (CA-MRSA): −3.78 Log10 CFU/ml | MIC ([28]; read-out: MIC, classical E-test): 3 µg/mL (≈ 2.07 µM) | MIC ([28]; read-out: MIC, macromethod of E-test): 32 µg/mL (≈ 22.1 µM) | sensitivity (MRSA [29]): All isolates were sensitive | sensitivity of all isolated strains (enterococci): All the isolated strains were sensitive | Δ Log10 CFU/ml (MDR-MRSA): −3.97 Log10 CFU/ml

CC[C@H]1OC(=O)[C@H](C)[C@@H](O[C@H]2C[C@@](C)(OC)[C@@H](O)[C@H](C)O2)[C@H](C)[C@@H](O[C@@H]2O[C@H](C)C[C@H](N(C)C)[C@H]2O)[C@](C)(OC)C[C@@H](C)C(=O)[C@H](C)[C@@H](O)[C@]1(C)O [clarithromycin]
MIC90 [30]: 0.12 ig/ml | MIC90 [31]: 0.5 ig/ml | MIC90 [32]: 0.5 ig/ml | adverse reactions or relapses ([33]; either group): no adverse reactions | time for disappearance of the fever after treatment ([33]; group A n=14, group B n=20): 2.57 ± 1.7 days | time to disappearance of symptoms ([33]; group A n=14, group B n=20): 4.35 ± 2.5 days | MIC50 (Nocardia spp.): 8 µg/mL (≈ 10.7 µM) | MIC90 (Nocardia spp.): 96 µg/mL (≈ 128 µM) | resistance (H.influenzae [14]; year 1): 36.9% | resistance (H.influenzae [14]; year 2): 25.7% | % S (H. influenzae (HI); 1998): 90% | % S (H. influenzae (HI); 1999): 100% | % S (H. influenzae (HI); 2000): 92% | % S (H. influenzae (HI); 2001): 91% | % S (H. influenzae (HI); 2002): 90% | % S (H. influenzae (HI); 2003): 94% | upregulation of mRNA of all target genes [34]: less prominent

ticarcillin/clavulanic acid
resistant isolates (Acinetobacter): 32.4% | Susceptible isolates (S. maltophilia): 65% | sensitivity [35]: 59.3%
